Where a name gives a salt, the structure may show the parent alone.
biological target: T1, amyloid beta (Aβ) 1-42 peptide (Homo sapiens, UniProt P05067); assay: Thioflavin T spectrofluorescence assay, inhibition of Aβ1-42 aggregation; type: biochemical; details: 330 μM small molecule, 33 μM Aβ1-42 (10:1 molar ratio), 24 hrs at 37° C.; mean ± SD of two independent experiments; read-out: % inhibition
T1 construct: amyloid beta (Aβ) 1-42 peptide; purchased Bachem
Description: A number of the small molecules were tested for their capacity to inhibit the aggregation of amyloid beta (Aβ) 1-42 peptide using a thioflavin T spectrofluorescence assay.
Aβ1-42 lyophilized powder (Bachem) was reconstituted in hexafluoroisopropanol (HFIP) to 1 mM. The peptide solution was sonicated for 15 min at room temperature, agitated overnight, and aliquots were placed into non-siliconized microcentrifuge tubes. The HFIP was then evaporated under a stream of argon. The resulting peptide film was dried under vacuum for 10 min, tightly sealed and stored at −80° C. until used.
To assay for the small molecule-mediated inhibition of Aβ1-42 aggregation, the small molecules were dissolved before each experiment in anhydrous dimethyl sulfoxide (DMSO, Sigma-Aldrich) to reach a concentration of 7.4 mM. Aβ1-42 peptide film was dissolved in DMSO to reach 400 μM. Assay solution in PBS buffer was prepared in non-siliconized incubation tubes to reach the following concentrations: 330 μM small molecule, 33 μM Aβ1-42, 10 μM thioflavin T (ThT), and 12.8% DMSO. Therefore, the final molar ratio of small molecule to Aβ1-42 was 10:1. A positive control without a small molecule was prepared to measure maximum RFU. A negative control without Aβ1-42 was prepared for each small molecule. 3-Aminopyrazole trimer (Trimer) was tested in all assays to ascertain reproducibility between independent experiments. The solutions were incubated for 24 hrs at 37° C., and the spectrofluorescence (relative fluorescence units; RFU) was read in six replicates in black 384-well assay plates (Perkin-Elmer) on a Perkin-Elmer FluoroCount spectrofluorometer. Inhibition of aggregation is expressed as mean % inhibition or ±1 standard deviation (SD) according to the following equation: […]
Cut-off criterium for the selection of functional molecules was defined at 50% inhibition capacity.
The small molecules were evaluated for their capacity to mediate inhibition of Aβ1-42 aggregation at a 10:1 small molecule to Aβ1-42 molar ratio. The results are expressed as mean±standard deviation of two independent experiments.

T1 sequence (P05067 672-713 limits assumed): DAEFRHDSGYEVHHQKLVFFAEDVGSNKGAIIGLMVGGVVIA

In order of falling inhibition at 330 µM:
1. c1ccc(CNc2cccc(CNc3cc(-c4cccs4)[nH]n3)n2)cc1 [Compound 2ac, N-benzyl-6-((5-(thiophen-2-yl)-1H-pyrazol-3-ylamino)methyl)pyridin-2-amine]  78.5 ± 1.3%
2. Fc1ccc(NCc2ccc(NCc3ccccc3)nc2)nc1 [Compound 2q, N-Benzyl-5-((5-fluoropyridin-2-ylamino)methyl)pyridin-2-amine]  45 ± 8.3%

same assay, conditions: 24 h

In order of rising inhibition at 330 µM:
1. CNc1ncc(CNc2nc(-c3ccc(C)cc3)cs2)s1 [Compound 2n, N-Methyl-5-((4-p-tolylthiazol-2-ylamino)methyl)thiazol-2-amine dihydrochloride]  27.8 ± 9.9%
2. Cc1ccc(-c2cnc(NCc3cnc(NCc4ccccc4)s3)s2)cc1 [Compound 2h, N-Benzyl-5-((5-p-tolylthiazol-2-ylamino)methyl)thiazol-2-amine dihydrochloride]  31.9 ± 10.1%
3. c1ccc(CNc2ncc(CNc3ncc(Cc4ccccc4)s3)s2)cc1 [Compound 2ag, 5-Benzyl-N-((2-(benzylamino)thiazol-5-yl)methyl)thiazol-2-amine dihydrochloride]  34.2 ± 1.6%
4. CNc1ncc(CNc2ncc(Cc3ccccc3)s2)s1 [Compound 2ah, 5-Benzyl-N-((2-(methylamino)thiazol-5-yl)methyl)thiazol-2-amine dihydrochloride]  35.7 ± 5.6%
5. CNc1ncc(CNc2ncc(-c3ccc(C)cc3)s2)s1 [Compound 2o, N-Methyl-5-((5-p-tolylthiazol-2-ylamino)methyl)thiazol-2-amine dihydrochloride]  39.6 ± 2.8%
6. CNc1ncc(CNc2nc(Cc3ccccc3)cs2)s1 [Compound 2af, 4-Benzyl-N-((2-(methylamino)thiazol-5-yl)methyl)thiazol-2-amine dihydrochloride]  41.3 ± 9.2%
7. CNc1ncc(CNc2nc(-c3ccc(Cl)cc3)cs2)s1 [Compound 2aa, 4-(4-Chlorophenyl)-N-((2-(methylamino)thiazol-5-yl)methyl)thiazol-2-amine dihydrochloride]  41.5 ± 9.6%
8. c1ccc(Nc2ncc(CNc3nccs3)s2)nc1 [Compound 2p, N-(Pyridin-2-yl)-5-((thiazol-2-ylamino)methyl)thiazol-2-amine trihydrochloride]  43.6 ± 2.1%
9. c1ccc(CNc2ncc(CNc3nc(Cc4ccccc4)cs3)s2)cc1 [Compound 2ae, 4-Benzyl-N-((2-(benzylamino)thiazol-5-yl)methyl)thiazol-2-amine dihydrochloride]  51.2 ± 1.5%
10. Cc1ccc(-c2cc(CNc3cc(-c4ccc(C)cc4)[nH]n3)n[nH]2)cc1 [Compound 2a, 5-p-Tolyl-N-((5-p-tolyl-1H-pyrazol-3-yl)methyl)-1H-pyrazol-3-amine dihydrochloride]  65.3 ± 2.6%
11. c1ccc(CNc2ncc(CNc3nc(-c4cccs4)cs3)s2)cc1 [Compound 2al, N-Benzyl-5-((4-(thiophen-2-yl)thiazol-2-ylamino)methyl)thiazol-2-amine dihydrochloride]  66.1 ± 15.4%
12. Cc1ccc(-c2csc(NCc3cnc(NCc4ccccc4)s3)n2)cc1 [Compound 2j, N-Benzyl-5-((4-p-tolylthiazol-2-ylamino)methyl)thiazol-2-amine dihydrochloride]  70.7 ± 6.8%
13. Fc1ccc(-c2cc(NCc3cnc(NCc4ccccc4)s3)n[nH]2)cc1 [Compound 2k, N-Benzyl-5-((5-(4-fluorophenyl)-1H-pyrazol-3-ylamino)methyl)thiazol-2-amine dihydrochloride]  81.2 ± 7.3%
14. CCCNc1ncc(CNc2ncc(CNc3nc(-c4ccc(C)cc4)cs3)s2)s1 [Compound 2ad, N-Propyl-5-((5-((4-p-tolylthiazol-2-ylamino)methyl)thiazol-2-ylamino)methyl)thiazol-2-amine trihydrochloride]  82.1 ± 2.2%
15. Cc1ccc(-c2cc(CNc3cc(CNc4cc(-c5ccc(C)cc5)[nH]n4)n[nH]3)n[nH]2)cc1 [Compound 2ai, 5-p-Tolyl-N-((5-((5-p-tolyl-1H-pyrazol-3-yl)methylamino)-1H-pyrazol-3-yl)methyl)-1H-pyrazol-3-amine trihydrochloride]  84.8%
